Some targets named below: Cannabinoid receptor 1 (Homo sapiens, UniProt P21554); Vasopressin V1a receptor (Homo sapiens, UniProt P37288); D(3) dopamine receptor (Homo sapiens, UniProt P35462).
Another assay addresses T1, Thromboxane A2 receptor (Homo sapiens, UniProt P21731).
T1 sequence (P21731 whole entry): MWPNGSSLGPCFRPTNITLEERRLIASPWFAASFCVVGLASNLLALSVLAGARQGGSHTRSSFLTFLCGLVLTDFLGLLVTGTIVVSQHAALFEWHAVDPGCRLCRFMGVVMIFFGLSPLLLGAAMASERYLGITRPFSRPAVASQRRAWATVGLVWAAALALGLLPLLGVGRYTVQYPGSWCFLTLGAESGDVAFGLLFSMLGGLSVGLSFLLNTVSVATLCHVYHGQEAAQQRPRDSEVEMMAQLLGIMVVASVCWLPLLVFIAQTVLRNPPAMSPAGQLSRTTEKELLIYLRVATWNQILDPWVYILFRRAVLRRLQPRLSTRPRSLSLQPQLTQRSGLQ

Assay [1] has as its target T2, Alpha-1A adrenergic receptor (Homo sapiens, UniProt P35348).
T2 sequence (P35348 whole entry): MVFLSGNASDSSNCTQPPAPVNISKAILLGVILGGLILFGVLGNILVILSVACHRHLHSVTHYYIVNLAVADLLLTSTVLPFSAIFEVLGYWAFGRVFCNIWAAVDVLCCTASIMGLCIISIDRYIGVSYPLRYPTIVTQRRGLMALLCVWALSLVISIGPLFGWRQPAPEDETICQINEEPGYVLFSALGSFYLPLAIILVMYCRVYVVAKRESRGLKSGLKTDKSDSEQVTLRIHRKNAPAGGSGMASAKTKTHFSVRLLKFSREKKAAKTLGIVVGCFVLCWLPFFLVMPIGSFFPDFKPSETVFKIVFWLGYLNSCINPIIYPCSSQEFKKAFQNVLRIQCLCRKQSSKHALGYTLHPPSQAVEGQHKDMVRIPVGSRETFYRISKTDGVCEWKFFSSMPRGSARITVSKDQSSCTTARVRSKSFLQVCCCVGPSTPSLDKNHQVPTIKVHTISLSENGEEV
It counts as functional, cell-based.

The target of assay [2] is T3, Gastrin/cholecystokinin type B receptor (Homo sapiens, UniProt P32239).
T3 sequence (P32239 whole entry): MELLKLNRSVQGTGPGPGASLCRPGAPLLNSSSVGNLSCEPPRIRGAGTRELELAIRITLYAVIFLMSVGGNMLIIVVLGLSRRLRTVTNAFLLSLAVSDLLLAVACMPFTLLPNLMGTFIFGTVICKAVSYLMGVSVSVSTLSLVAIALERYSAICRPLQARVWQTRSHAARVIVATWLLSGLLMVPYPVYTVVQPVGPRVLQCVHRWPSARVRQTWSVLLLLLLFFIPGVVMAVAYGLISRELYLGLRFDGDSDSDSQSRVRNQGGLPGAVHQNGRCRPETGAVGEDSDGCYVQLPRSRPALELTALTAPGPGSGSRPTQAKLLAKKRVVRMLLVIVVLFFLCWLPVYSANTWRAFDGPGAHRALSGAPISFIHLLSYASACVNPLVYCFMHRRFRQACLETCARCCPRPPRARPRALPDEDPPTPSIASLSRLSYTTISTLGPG
Also: assay procedure not described here.

Chain of Cannabinoid receptor 1 (P21554 whole entry): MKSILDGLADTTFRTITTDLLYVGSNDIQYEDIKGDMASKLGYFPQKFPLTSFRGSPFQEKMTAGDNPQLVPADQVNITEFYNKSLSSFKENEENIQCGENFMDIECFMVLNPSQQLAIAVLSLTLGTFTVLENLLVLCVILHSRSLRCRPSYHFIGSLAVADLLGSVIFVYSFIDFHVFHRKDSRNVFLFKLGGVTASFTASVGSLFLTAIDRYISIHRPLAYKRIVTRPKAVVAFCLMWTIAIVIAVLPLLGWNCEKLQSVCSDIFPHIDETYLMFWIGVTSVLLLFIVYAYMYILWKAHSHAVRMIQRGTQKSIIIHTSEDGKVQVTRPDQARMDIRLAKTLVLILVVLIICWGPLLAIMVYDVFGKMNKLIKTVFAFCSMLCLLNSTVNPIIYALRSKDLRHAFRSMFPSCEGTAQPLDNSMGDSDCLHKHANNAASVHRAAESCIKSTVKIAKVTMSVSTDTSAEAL
Chain of Vasopressin V1a receptor (P37288 whole entry): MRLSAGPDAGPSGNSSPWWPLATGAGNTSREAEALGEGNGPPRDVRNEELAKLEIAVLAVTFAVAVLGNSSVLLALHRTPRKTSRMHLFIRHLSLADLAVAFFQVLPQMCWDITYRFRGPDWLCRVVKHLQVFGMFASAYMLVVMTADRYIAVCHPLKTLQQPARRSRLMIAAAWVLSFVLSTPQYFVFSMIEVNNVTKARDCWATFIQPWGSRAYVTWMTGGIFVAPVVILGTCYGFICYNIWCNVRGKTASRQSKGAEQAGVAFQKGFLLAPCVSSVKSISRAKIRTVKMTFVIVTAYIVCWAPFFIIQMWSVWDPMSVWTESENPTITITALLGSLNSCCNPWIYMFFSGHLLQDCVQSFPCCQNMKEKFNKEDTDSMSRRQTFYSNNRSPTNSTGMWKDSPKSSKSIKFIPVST
Chain of D(3) dopamine receptor (P35462 whole entry): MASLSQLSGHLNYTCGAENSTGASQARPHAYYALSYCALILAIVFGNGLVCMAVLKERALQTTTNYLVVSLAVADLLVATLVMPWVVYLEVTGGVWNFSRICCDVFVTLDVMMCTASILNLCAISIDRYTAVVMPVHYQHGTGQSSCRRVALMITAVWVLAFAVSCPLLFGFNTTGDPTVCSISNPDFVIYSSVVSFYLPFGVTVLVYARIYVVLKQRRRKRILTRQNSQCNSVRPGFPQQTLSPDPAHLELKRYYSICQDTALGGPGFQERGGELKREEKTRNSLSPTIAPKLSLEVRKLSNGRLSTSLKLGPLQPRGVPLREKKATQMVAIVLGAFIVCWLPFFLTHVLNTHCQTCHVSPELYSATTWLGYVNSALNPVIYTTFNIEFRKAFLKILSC

In the case of `NC[C@H]1CC[C@H](C(=O)O)CC1` [TRANEXAMIC ACID], the AC50 on Thromboxane A2 receptor and on Cannabinoid receptor 1 was above 10 µM in each case. As for `Cc1cccc(C)c1OCC(C)N` (centres undefined) [MEXILETINE], the AC50 in assay [1] and in assay [2] was above 30 µM in each case.

Turning to `CNC(=O)c1cc(Oc2ccc(NC(=O)Nc3ccc(Cl)c(C(F)(F)F)c3)cc2)ccn1` [SORAFENIB], the AC50 at Thromboxane A2 receptor is 16.3 µM; in assay [1], above 30 µM; in assay [2], above 10 µM; at Vasopressin V1a receptor, above 30 µM. Turning to `NC[C@H]1O[C@H](O[C@H]2[C@H](O)[C@@H](O[C@H]3O[C@H](CO)[C@@H](O)[C@H](N)[C@H]3O)[C@H](N)C[C@@H]2N)[C@H](O)[C@@H](O)[C@@H]1O` [KANAMYCIN], the AC50 at Thromboxane A2 receptor is above 10 µM; in assay [1], above 30 µM; at Cannabinoid receptor 1, above 10 µM.

As to `CC(C)(C(=O)c1cccnc1)c1cccnc1` [METYRAPONE], the AC50 on Thromboxane A2 receptor and at Cannabinoid receptor 1 was above 10 µM throughout.

For `CC(C(=O)O)c1ccc(C(=O)c2cccs2)cc1` (centres undefined) [SUPROFEN], the AC50 at Thromboxane A2 receptor, on Vasopressin V1a receptor and on Cannabinoid receptor 1 was above 10 µM throughout. `O=C1c2ccccc2C(=O)C1C(=O)C(c1ccccc1)c1ccccc1` [DIPHENADIONE]: the concentration at half-maximal activity (AC50) at D(3) dopamine receptor was above 30 µM.

With `O=C1c2c(O)c(=O)ccn2N([C@@H]2c3ccccc3SCc3c2ccc(F)c3F)[C@@H]2COCCN12` [BALOXAVIR], at D(3) dopamine receptor, the AC50 was above 30 µM.

With `CS(=O)(=O)c1ccc([C@@H](O)[C@@H](CO)NC(=O)C(Cl)Cl)cc1` [THIAMPHENICOL], the AC50 (on Thromboxane A2 receptor; in assay [1]; in assay [2]; on Vasopressin V1a receptor; on D(3) dopamine receptor) was above 30 µM throughout. As to `CCC(=O)c1c(O)cc(O)cc1O` [FLOPROPIONE], on D(3) dopamine receptor, the AC50 worked out at 12.1 µM.

For the molecule `CCCS(=O)(=O)Nc1ccc(F)c(C(=O)c2c[nH]c3ncc(-c4ccc(Cl)cc4)cc23)c1F` [VEMURAFENIB], the AC50 (at Thromboxane A2 receptor; in assay [1]; in assay [2]; on Vasopressin V1a receptor) was above 30 µM throughout.

Consider `O=C1CC[C@@]2(O)[C@H]3Cc4ccc(O)c5c4[C@@]2(CCN3CC2CC2)[C@H]1O5` [NALTREXONE], for which the AC50 on D(3) dopamine receptor is above 30 µM. Same read-out and setting: the value for `CN(C)C(=O)Oc1ccc[n+](C)c1` [PYRIDOSTIGMINE] was above 30 µM; that for `CC(C)OC(=O)[C@H](C)N[P@](=O)(OC[C@H]1O[C@@H](n2ccc(=O)[nH]c2=O)[C@](C)(F)[C@@H]1O)Oc1ccccc1` [SOFOSBUVIR] was above 30 µM. As to `CN1C(=O)CC(C)(c2ccccc2)C1=O` (centres undefined) [METHSUXIMIDE], the concentration at half-maximal activity (AC50) at Thromboxane A2 receptor, on Vasopressin V1a receptor and on Cannabinoid receptor 1 was above 10 µM throughout.

The molecule `CC(N/C(=N\C#N)Nc1ccncc1)C(C)(C)C` (centres undefined) [PINACIDIL ANHYDROUS] came in with an AC50 on D(3) dopamine receptor above 30 µM.

At D(3) dopamine receptor, `CCOC(=O)c1ccc(O)cc1` [ETHYLPARABEN] registered an AC50 above 30 µM. Take `O=C(O)c1cc(-c2ccc(F)cc2F)ccc1O` [DIFLUNISAL]: the AC50 at Thromboxane A2 receptor and on Cannabinoid receptor 1 was above 10 µM each time. For `CCO/N=C(\C(=O)N[C@@H]1C(=O)N2C(C(=O)[O-])=C(Sc3nc(-c4cc[n+](C)cc4)cs3)CS[C@H]12)c1nsc(N)n1` [CEFTAROLINE], the AC50 on D(3) dopamine receptor was above 30 µM. On D(3) dopamine receptor, `Cc1ccc(O)c2ncccc12` [TILIQUINOL] registered an AC50 above 30 µM.

As to `C#C[C@]1(O)CC[C@H]2[C@@H]3CCC4=CC(=O)CC[C@@H]4[C@H]3CC[C@@]21CC` [LEVONORGESTREL], the AC50 at D(3) dopamine receptor was above 30 µM.

Consider `CC(=O)Oc1c(C)cc(OCC(O)CNC(C)C)c(C)c1C` (centres undefined) [METIPRANOLOL], for which, at D(3) dopamine receptor, the AC50 is above 30 µM. Same read-out and setting: to `Sc1ncnc2nc[nH]c12` [MERCAPTOPURINE ANHYDROUS] belongs above 30 µM. Consider `CC(O)CO` (centres undefined) [PROPYLENE GLYCOL], for which, at D(3) dopamine receptor, the AC50 is above 30 µM. With `C[C@@H]1O[C@@H]1P(=O)(O)O` [FOSFOMYCIN], the AC50 at Thromboxane A2 receptor, at Vasopressin V1a receptor and at Cannabinoid receptor 1 was above 10 µM throughout. With `Cc1ccc(C(=O)c2cc(O)c(O)c([N+](=O)[O-])c2)cc1` [TOLCAPONE], the AC50 at Thromboxane A2 receptor, on Vasopressin V1a receptor and at Cannabinoid receptor 1 was above 10 µM each time.

The molecule `Cc1cc2c(cc1CC(=O)c1sccc1S(=O)(=O)Nc1onc(C)c1Cl)OCO2` [SITAXENTAN] yielded an AC50 at D(3) dopamine receptor above 30 µM. For the molecule `Cc1cc(O)cc(C)c1Cl` [CHLOROXYLENOL], the concentration at half-maximal activity (AC50) at D(3) dopamine receptor was above 30 µM. For `COC(=O)N[C@H](C(=O)N1CCC[C@H]1c1nc(-c2ccc(-c3ccc(-c4c[nH]c([C@@H]5CCCN5C(=O)[C@@H](NC(=O)OC)C(C)C)n4)cc3)cc2)c[nH]1)C(C)C`, the AC50 (on Thromboxane A2 receptor; in assay [1]; in assay [2]; on Vasopressin V1a receptor; on Cannabinoid receptor 1) was above 30 µM throughout. On D(3) dopamine receptor, `Cc1c(-c2ccccc2)oc2c(C(=O)OCCN3CCCCC3)cccc2c1=O` [FLAVOXATE] returned an AC50 of 0.88 µM. That is a sub-micromolar value.

Molecule `C[N+]1(C)[C@@H]2C[C@@H](OC(=O)[C@H](CO)c3ccccc3)C[C@H]1[C@@H]1O[C@@H]12` [METHSCOPOLAMINE] came in with an AC50 on D(3) dopamine receptor above 30 µM.

As for `C(=N\NC1=NCCN1)/c1c2ccccc2c(/C=N/NC2=NCCN2)c2ccccc12` [BISANTRENE], on D(3) dopamine receptor, the activity was half-maximal at 5.96 µM (AC50). In other words, the single-digit micromolar range. With `COC(=O)N[C@H](C(=O)N[C@@H](Cc1ccccc1)[C@@H](O)CN(Cc1ccc(-c2ccccn2)cc1)NC(=O)[C@@H](NC(=O)OC)C(C)(C)C)C(C)(C)C` [ATAZANAVIR], the AC50 was above 30 µM at Thromboxane A2 receptor, above 30 µM in assay [2], above 30 µM on Vasopressin V1a receptor and above 10 µM at Cannabinoid receptor 1.

Consider `OC[C@@H](O)[C@@H](O)[C@H](O)[C@H](O)CO` [MANNITOL], for which, on D(3) dopamine receptor, the AC50 was above 30 µM. Regarding `CN(C)CCCN1c2ccccc2CCc2ccc(Cl)cc21` [CLOMIPRAMINE], the AC50 was above 30 µM in assay [1], 0.0393 µM on D(3) dopamine receptor and above 10 µM at Cannabinoid receptor 1. Regarding `CCOC(=O)N[C@@H]1CC[C@@H]2[C@@H](C1)C[C@H]1C(=O)O[C@H](C)[C@H]1[C@H]2/C=C/c1ccc(-c2cccc(F)c2)cn1` [VORAPAXAR], the AC50 at D(3) dopamine receptor was above 30 µM. Same read-out and setting: the value for `CC1(C)O[C@@H]2C[C@H]3[C@@H]4C[C@H](F)C5=CC(=O)CC[C@]5(C)[C@H]4[C@@H](O)C[C@]3(C)[C@]2(C(=O)CO)O1` [FLURANDRENOLIDE] was above 30 µM; that for `CC(=O)OC[C@H]1O[C@@H](n2ccc(=O)[nH]c2=O)[C@H](OC(C)=O)[C@@H]1OC(C)=O` [URIDINE TRIACETATE] was above 30 µM.

The molecule `O=C1[C@H](CC[C@H](O)c2ccc(F)cc2)[C@@H](c2ccc(O)cc2)N1c1ccc(F)cc1` [EZETIMIBE] registered an AC50 at D(3) dopamine receptor above 30 µM. For the molecule `C[C@H]1C[C@@H]2[C@H]([C@@H](O)C[C@@]3(C)[C@H]2CC[C@]3(O)C(=O)CO)[C@@]2(C)C=CC(=O)C=C12` [METHYLPREDNISOLONE], the AC50 at Thromboxane A2 receptor and on Cannabinoid receptor 1 was above 10 µM throughout. On D(3) dopamine receptor, `C[N+](C)(C)CCCCCCCCCC[N+](C)(C)C` [DECAMETHONIUM] showed an AC50 above 30 µM. The same measure, in the same setting: the value for `CCC(=O)O[C@H]1[C@H](O[C@@H]2[C@@H](C)[C@H](O[C@H]3C[C@@](C)(OC)[C@@H](O)[C@H](C)O3)[C@@H](C)C(=O)O[C@H](CC)[C@@](C)(O)[C@H](O)[C@@H](C)C(=O)[C@H](C)C[C@@]2(C)O)O[C@H](C)C[C@@H]1N(C)C` [ERYTHROMYCIN PROPIONATE] was 12.9 µM.

Regarding `COc1ccc2c(c1)C(=O)N(CCc1ccc(S(=O)(=O)NC(=O)NC3CCCCC3)cc1)C(=O)C2(C)C` [GLIQUIDONE], the AC50 is 11 µM on Thromboxane A2 receptor; above 30 µM in assay [1]; above 10 µM in assay [2]; above 30 µM on Vasopressin V1a receptor; above 30 µM on Cannabinoid receptor 1.

For the molecule `O=C(COc1ccc(Cl)cc1)N1CCN(Cc2ccc3c(c2)OCO3)CC1` [FIPEXIDE], the AC50 on D(3) dopamine receptor amounted to 27.1 µM. As for `COC(=O)C1=C(C)NC(C)=C(C(=O)OCC(C)C)C1c1ccccc1[N+](=O)[O-]` (centres undefined) [NISOLDIPINE], the figures for the AC50 (on Thromboxane A2 receptor; in assay [1]) were above 10 µM and above 30 µM, respectively.
